# Data: PMC9819389, “Antiandrogenic and Estrogenic Activity Evaluation of Oxygenated and Nitrated Polycyclic Aromatic Hydrocarbons Using Chemically Activated Luciferase Expression Assays” (International Journal of Environmental Research and Public …, 2022)
# Like-named read-outs stand apart in the source and are kept apart here.
# Legend:
# human AR [1] = target: T1, human AR (Homo sapiens, UniProt P10275); assay: AR-CALUX assay, antiandrogenic (AR antagonistic) activity, U2OS-luc cells; type: cell-based; parameters: host or cells: human U2OS-luc (osteoblastic osteosarcoma) cells; conditions: for IC25 / REPmol (IC25): present study; for IC25: 24 h exposure with 100 pM DHT (EC50 level); for REPmol (IC25): molar relative potency to flutamide, IC25-based; for IC50: read-out: IC50; for inhibition of AR-mediated luciferase activity: coexposure to DHT at 10 nM (100 × EC50); for mode of AR inhibition: from coexposure to 10 nM DHT
# T1 sequence (P10275 1-920): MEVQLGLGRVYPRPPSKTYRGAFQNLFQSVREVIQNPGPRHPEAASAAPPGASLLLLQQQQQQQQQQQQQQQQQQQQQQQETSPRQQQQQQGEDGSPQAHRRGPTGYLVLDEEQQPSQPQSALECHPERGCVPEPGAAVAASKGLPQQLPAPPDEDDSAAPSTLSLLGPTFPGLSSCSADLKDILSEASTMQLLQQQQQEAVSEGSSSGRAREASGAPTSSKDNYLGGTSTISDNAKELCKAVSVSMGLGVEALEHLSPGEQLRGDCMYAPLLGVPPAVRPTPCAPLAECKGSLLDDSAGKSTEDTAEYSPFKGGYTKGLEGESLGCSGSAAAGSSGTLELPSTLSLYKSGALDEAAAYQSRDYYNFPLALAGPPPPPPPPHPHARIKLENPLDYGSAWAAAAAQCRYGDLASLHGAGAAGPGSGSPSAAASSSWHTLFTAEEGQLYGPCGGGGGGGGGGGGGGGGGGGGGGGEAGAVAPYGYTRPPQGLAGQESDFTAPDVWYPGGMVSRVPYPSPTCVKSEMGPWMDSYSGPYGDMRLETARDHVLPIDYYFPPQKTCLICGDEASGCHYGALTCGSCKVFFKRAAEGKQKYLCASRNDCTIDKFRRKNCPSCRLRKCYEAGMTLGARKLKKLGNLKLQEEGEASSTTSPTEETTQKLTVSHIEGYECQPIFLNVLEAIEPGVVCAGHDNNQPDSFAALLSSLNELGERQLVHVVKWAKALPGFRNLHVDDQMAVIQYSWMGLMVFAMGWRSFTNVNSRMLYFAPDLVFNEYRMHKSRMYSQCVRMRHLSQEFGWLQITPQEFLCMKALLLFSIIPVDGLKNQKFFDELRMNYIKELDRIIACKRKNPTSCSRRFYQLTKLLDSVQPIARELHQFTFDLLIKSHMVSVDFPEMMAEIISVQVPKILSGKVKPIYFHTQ
# Experimental: (§1) The AR- and ER-CALUX assays for the polycyclic aromatic compounds were evaluated according to previously described methods, which used human U2OS-luc cells developed by BioDetection Systems b.v. (Amsterdam, The Netherlands). The cells are transfected stably with human AR and ER, respectively, and a luciferase reporter gene under their respective steroid receptor response elements. […] They were incubated at 37 °C in a humidified atmosphere containing 5% carbon dioxide. […] The medium was then removed, and the cells were lysed. A solution of luciferin was then added, and the luminescence intensity was measured with an ARVO™ X3 luminometer from PerkinElmer (Waltham, MA, USA). A sigmoid dose–response curve for a chemical was fitted to the Hill equation given by Equation (1) using SigmaPlot 11.0 from Systat Software Inc. (San Jose, CA, USA). y = min + (max − min)/(1 + (a1/x)^a^2)(1) where, y and x are the measured luciferase induction level and compound concentration, respectively. […] The REP values in mol base were obtained by dividing the ICs or ECs of the standard by the ICs or ECs of target compound, respectively.
# (§2) All measurements were conducted in triplicate wells. They were repeated twice and trice in the AR- and ER-CALUX assays, respectively, for each concentration in dose–response curve. […] Cell viability was confirmed using 3-(4,5-dimethylthiazol-2-yl)-2,5-diphenyltetrazolium bromide (MTT) assay. If the cell viability was <80% in the positive control, the corresponding exposure dose was considered cytotoxic and excluded from the calculation.
# human ER [2] = target: T2, human ER (Homo sapiens, UniProt P03372); assay: ER-CALUX assay, estrogenic activity, U2OS-luc cells; type: cell-based; parameters: host or cells: human U2OS-luc (osteoblastic osteosarcoma) cells; conditions: for EC50 / REPmol (EC50): present study; for EC50: 24 h exposure; for REPmol (EC50): molar relative potency to E2, EC50-based
# T2 sequence (P03372 1-595): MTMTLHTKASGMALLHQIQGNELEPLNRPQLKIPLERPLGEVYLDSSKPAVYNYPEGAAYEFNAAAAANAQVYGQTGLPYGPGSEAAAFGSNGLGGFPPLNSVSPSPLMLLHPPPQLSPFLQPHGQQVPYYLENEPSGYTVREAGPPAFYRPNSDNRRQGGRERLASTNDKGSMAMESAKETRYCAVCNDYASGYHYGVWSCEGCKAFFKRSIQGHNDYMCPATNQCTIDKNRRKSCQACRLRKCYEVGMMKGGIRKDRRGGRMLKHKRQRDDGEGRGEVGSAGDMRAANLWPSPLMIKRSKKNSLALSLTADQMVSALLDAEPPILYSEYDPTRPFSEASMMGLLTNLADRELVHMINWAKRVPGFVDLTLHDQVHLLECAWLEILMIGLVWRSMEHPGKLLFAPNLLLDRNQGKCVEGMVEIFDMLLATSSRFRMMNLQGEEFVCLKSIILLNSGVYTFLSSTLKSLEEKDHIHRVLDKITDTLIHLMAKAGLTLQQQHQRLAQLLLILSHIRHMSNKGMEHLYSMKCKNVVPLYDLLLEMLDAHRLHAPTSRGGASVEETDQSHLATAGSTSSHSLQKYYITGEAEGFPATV
# human AR [3] = target: T1, human AR; parameters: method as in Otsuki et al. [38]; key: +, positive; conditions: previous study; ref Otsuki et al. [38]; cited from earlier work
# U2OS-luc cells = assay: MTT cell viability (cytotoxicity) assay; conditions: cell viability <80% considered cytotoxic
# Experimental: as §2
# thyroid receptor (TR) α = test system: thyroid receptor (TR) α; parameters: method as in PMID 31071665; conditions: TRα activation; cited from earlier work
# human AR [4] = target: T1, human AR; assay: AR-CALUX assay, androgenic (agonistic) activity; type: cell-based; parameters: host or cells: human U2OS-luc (osteoblastic osteosarcoma) cells; conditions: data not shown
# Experimental: as §1
# human ER [5] = target: T2, human ER; parameters: method as in Machala et al. [36]; conditions: previous study; relative to E2; ref Machala et al. [36]; cited from earlier work
# ER [6] = test system: ER; parameters: method as in Pieterse et al. [30]; conditions: previous study; relative to E2; ref Pieterse et al. [30]; cited from earlier work
# AR [7] = conditions: previous study, relative to flutamide, cited from earlier work
# ER [8] = conditions: previous study; relative to E2; ref Šimečková et al. [44]; cited from earlier work
# AR [9] = test system: AR; parameters: method as in Okamura et al. [22]; key: +, positive; conditions: previous study; ref Okamura et al. [22]; cited from earlier work
# ER [10] = test system: ER; parameters: method as in Boonen et al. [33]; conditions: previous study; relative to E2; ref Boonen et al. [33]; cited from earlier work
structure (smiles),measurement,setting,value
"O=[N+]([O-])c1ccc2ccc3c([N+](=O)[O-])ccc4ccc1c2c43 [1,6-DNPy, 1,6-dinitropyrene]",inhibition at 0.1 µM,"human AR [1]; at 0.1 μM (100 nM), maximum soluble concentration, read-out: inhibition of AR activation",> 20%
same,EC50,human ER [2],U (key: U: < 10% response of 1 nM E2; nd: not detected)
same,REPmol (EC50),human ER [2],U (key: U: < 10% response of 1 nM E2; nd: not detected)
same,"antiandrogenic activity, Yeast",human AR [3],+
"O=[N+]([O-])c1ccc2ccc3cccc4ccc1c2c34 [1-NPy, 1-nitropyrene]",IC25,human AR [1],94 nM
same,REPmol (IC25),human AR [1],1.4
same,IC50,human AR [1],220 nM
same,activation (level of the response to 1 nM E2),human ER [2]; at 10 μM,14% activation at 10 μM
same,"antiandrogenic activity, Yeast",human AR [3],+
"O=C1c2ccccc2-c2ccc([N+](=O)[O-])c3cccc1c23 [3-NBAO, 3-nitro-7H-benz[de]anthracen-7-one]",inhibition of AR-mediated luciferase activity,human AR [1]; compound at 30 nM,29%
same,inhibition of AR-mediated luciferase activity,human AR [1]; compound at 300 nM,60%
same,mode of AR inhibition,human AR [1],noncompetitive
same,IC25,human AR [1],5.1 nM
same,REPmol (IC25),human AR [1],23
same,IC50,human AR [1],18 nM
same,"antiandrogenic activity, Yeast",human AR [3],+
same,concentration at which cytotoxicity was confirmed,U2OS-luc cells,1000 nM
same,REP50 to triiodothyronine (T3),thyroid receptor (TR) α,0.11
"O=[N+]([O-])c1ccc2c3c(cccc13)-c1ccccc1-2 [3-NFA, 3-nitrofluoranthene]",concentration above which inhibition of AR-mediated luciferase activity is attenuated (U-shaped curve),human AR [1],> 300 nM
same,attenuation of antiandrogenic activity,human AR [1]; at high concentrations compared to at 100 nM,approximately 40%
same,inhibition of AR-mediated luciferase activity,human AR [1]; compound at 100 nM,26%
same,inhibition of AR-mediated luciferase activity,human AR [1]; compound at 10 μM,82%
same,mode of AR inhibition,human AR [1],noncompetitive
same,IC25,human AR [1],5.3 nM
same,REPmol (IC25),human AR [1],32
same,IC50,human AR [1],14 nM
same,concentration above which AR-mediated luciferase activity increases (U-shaped curve),human AR [1]; table entry,increase at > 0.3 μM
same,EC50,human ER [2],U (< 10% response of 1 nM E2)
same,REPmol (EC50),human ER [2],U (< 10% response of 1 nM E2)
same,"antiandrogenic activity, Yeast",human AR [3],+
same,concentration at which weak androgenic activity was observed,human AR [4],≥ 1 µM
same,"maximum androgenic induction, relative to the EC50 level of DHT",human AR [4],< 16%
same,Emax,"human AR [4]; read-out: maximum androgenic induction, level of maximum response of DHT exposure (10 nM)",< 8%
"O=C1c2ccccc2C(=O)c2c1ccc1ccccc21 [BAQ, 7,12-benz[a]anthracenequinone]",IC25,human AR [1],2500 nM
same,REPmol (IC25),human AR [1],0.056
same,IC50,human AR [1],6400 nM
same,"REPmol, MVLN",human ER [5],1.4 × 10^−6
"c1ccc2cc3c(ccc4ccccc43)cc2c1 [B[a]A, benz[a]anthracene]","REPmol, U2OS",ER [6],<2 × 10^−9
same,"REPmol, U2OS",AR [7]; ref Alvarez-Muñoz et al. [28],1.3
same,"REPmol, U2OS",AR [7]; ref Marin-Kuan et al. [29],0.4
same,"REPmol, MVLN",human ER [5],7.9 × 10^−7
same,"REPmol, T47D",ER [8],1.6 × 10^−6
same,"antiandrogenic activity, PC3",AR [9],+
"c1ccc2c(c1)cc1ccc3cccc4ccc2c1c34 [B[a]P, benzo[a]pyrene]","REPmol, U2OS",ER [6],2 × 10^−6
same,"REPmol, VM7",ER [10],5.3 × 10^−6
same,"REPmol, U2OS",AR [7]; ref Marin-Kuan et al. [29],0.4
same,"REPmol, U2OS",AR [7]; ref Pieterse et al. [30],0.1
same,"REPmol, T47D",ER [8],3.1 × 10^−6
same,"antiandrogenic activity, PC3",AR [9],+
"C[C@]12CC[C@@H]3c4ccc(O)cc4CC[C@H]3[C@@H]1CC[C@@H]2O [E2, 17β-estradiol, reference compound]","REPmol, U2OS",ER [6],1
same,"REPmol, VM7",ER [10],1
same,"REPmol, T47D",ER [8],1
"O=C1C(=O)c2ccccc2-c2ccccc21 [PhQ, phenanthrenequinone]",IC25,human AR [1],180 nM
same,REPmol (IC25),human AR [1],0.63
same,IC50,human AR [1],390 nM
same,concentration at which cytotoxicity was confirmed,U2OS-luc cells,1000 nM
"c1cc2ccc3cccc4ccc(c1)c2c34 [Py, pyrene]","REPmol, U2OS",AR [7]; ref Alvarez-Muñoz et al. [28],0.41
same,"REPmol, U2OS",AR [7]; ref Pieterse et al. [30],0.03
same,"REPmol, T47D",ER [8],5.3 × 10^−7
same,"antiandrogenic activity, PC3",AR [9],+
